Consider eleven molecules from patent US7151116B2, “Apoptolidin analogs and derivatives for inducing apoptosis in transformed cells” (Board of Trustees of The Leland Stanford Junior University, priority 2003, dated 2006).

Like-named read-outs stand apart in the source and are kept apart here.

For data set [1], the system named is 60 human cancer cell lines (NCI 60). To be noted: of 37,000 compounds tested by the National Cancer Institute; cited from earlier work.
Data set [2] relates to untransformed rat glial cells. Particulars: Seto et al., 1997; cited from earlier work.
Data set [3] addresses T1, mitochondrial F0F1-ATPase (Saccharomyces cerevisiae, UniProt P00830+P07251+P38077).
T1 construct: endogenous in cells; host or cells: isolated yeast mitochondria (cell-free preparation)
Kind of data set: F0F1-ATPase inhibition assay in isolated yeast mitochondria (20 minute cell-free assay). In kind it is biochemical. To be noted: for F0F1-ATPase inhibitory activity (in words): comparison. How it is done: The ability of isoapoptolidin and the apoptolidin derivatives described in Examples 3 and 4 to inhibit F0F1-ATPase in isolated yeast mitochondria was studied. The F0F1-ATPase assay is a rapid 20 minute cell-free assay.
The functionalized macrolide and δ-lactone fragments were assayed for inhibitory activity against mitochondrial F0F1-ATPase.

The subject of data set [4] is rat glial cells transformed with the adenovirus E1A or E1A/E1B19K/E1B54K oncogenes. To be noted: Seto et al., 1997; cited from earlier work.
The subject of a further data set is normal fibroblasts. Particulars: Seto et al., 1997; cited from earlier work.
The nature of data set [5]: Apoptolidin-isoapoptolidin equilibrium kinetics in PBS at 37° C. (reverse-phase HPLC). In kind it is physicochemical. Particulars: solution starting from the labelled isomer (Q(t) = 0 at t = 0: apoptolidin, Q(t) = ∞ at t = 0: isoapoptolidin); for k1: apoptolidin to isoapoptolidin; for k−1: isoapoptolidin to apoptolidin. How it is done:
(§1) To measure the kinetic parameters of apoptolidin and isoapoptolidin, solutions of both compounds in PBS (Dulbecco's phosphate buffered saline) were prepared and incubated at 37° C. in sealed reaction vessels. Periodically, the components present in the solutions were quantified using reverse-phase HPLC. Baseline separation was achieved using a 150×4.6 mm C18/5μ column eluting with a water/acetonitrile gradient from 40% to 90% over 30 min. After normalization for the difference in extinction coefficients (λobs=254 nm), these values were plotted and the rate constants k1 and k−1 were extracted by fitting the data to the integrated rate expression for a simple equilibrium. The kinetic parameters for apoptolidin and isoapoptolidin equilibrium over time in PBS at 37° C. The relative amounts of apoptolidin and isoapoptolidin at various time points are plotted in FIG. 2.

Data set [6] is described as follows: Stability of solutions on storage (NMR, HPLC, UV-vis). To be noted: for conversion in dilute aqueous solution: ambient temperature, HPLC or UV-vis. The format is physicochemical. The source says: To study the kinetic parameters of isoapoptolidin, the conversion between apoptolidin and isoapoptolidin under biological assay and chemical isolation conditions was observed. […] During this time, no conversion to isoapoptolidin is observed, either by NMR or HPLC. […] Given that the conversion between apoptolidin and isoapoptolidin goes in both directions, it is likely that these two compounds are in equilibrium.

A short description of data set [7]: Stability in the presence of all F0F1-ATPase assay components. The format is physicochemical. To be noted: up to 24 hours. On the procedure:
To test the ability of isoapoptolidin to inhibit F0F1-ATPase activity, solutions of isoapoptolidin and apoptolidin including all assay components were analyzed for isomerization. After 20 minutes at 37° C., less than 12% conversion was detected.
To test the ability of apoptolidin derivatives to inhibit F0F1-ATPase activity, compound 16 from Table 3 was exposed to all of the assay components for up to 24 hours.

A further data set is described as follows: Stability in PBS (LC-MS). In kind it is physicochemical. Particulars: conditions that promote apoptolidin/isoapoptolidin isomerization. On the procedure: as §1
This experiment leads to the conclusion that while derivatization of apoptolidin at C-20 blocks isomerization to isoapoptolidin, the resulting derivatives (compounds 18 and 20) undergo other transformations.

A short description of data set [8]: Isomerization in basic CD3OD (LCMS and NMR). The format is physicochemical. The source says: To prevent ring expansion, the primary alcohol may be efficiently converted to a methyl ether or benzoate ester by way of treatment with Meerwein's salt or benzoyl anhydride followed by deprotection, under this procedure, the following macrocycles resulted, respectively: Compound 23: Q^1=Q^2=Q^3=Q^4=Q^5=Q^7=H; Q^6=R^1=R^2=R^3=R^4=CH3 Compound 24: Q^1=Q^2=Q^3=Q^4=Q^5=Q^7=H; Q^6=[…]; R^1=R^2=R^3=R^4=CH3

For orientation: IC50 means the point on the concentration scale where inhibition reaches its midpoint. As for `COC[C@@H](C[C@H]1O[C@@](O)([C@H](O)[C@@H]2C[C@H](OC)[C@@H](O)CC/C=C(C)/C=C/[C@@H](O[C@@H]3O[C@@H](C)[C@H](OC)[C@@H](O)[C@@H]3O)[C@H](C)/C=C(C)/C=C(C)/C=C(\C)C(=O)O2)[C@H](C)[C@@H](O)[C@H]1C)O[C@H]1C[C@](C)(O)[C@@H](O[C@H]2C[C@@H](OC)[C@H](O)[C@@H](C)O2)[C@H](C)O1` [Apoptolidin], the “rank of selectivity among cytotoxic agents” value in data set [1] is “among the top 0.1% most selective cytotoxic agents”. Also, the cytotoxic effect result in data set [2] was “no cytotoxic effect”. In data set [3], this molecule displayed a 50% inhibitory concentration (IC50) of 700 ± 500 nM. The induction of apoptosis result in [4] is “capable of inducing apoptosis”. Also, the cytotoxic effect entry in the data set with normal fibroblasts is on record as “no cytotoxic effect”. In data set [5], the Keq is recorded as 0.0616, the k1 turned out to be 0.0656 h⁻¹ and the “k−1” value turned out to be 0.106 h⁻¹. In addition, the “conversion in dilute aqueous solution” value in data set [6] is “convert to isoapoptolidin”. In addition, the “stable in solution (no conversion to isoapoptolidin by NMR or HPLC)” value in data set [6] (−20° C., dissolved in chloroform or methylene chloride) is “up to three months”.

In turn, `COC[C@@H](C[C@H]1O[C@@](OC)([C@H](O)[C@@H]2C[C@H](OC)[C@@H](O)CC/C=C(C)/C=C/[C@@H](O[C@@H]3O[C@@H](C)[C@H](OC)[C@@H](O)[C@@H]3O)[C@H](C)/C=C(C)/C=C(C)/C=C(\C)C(=O)O2)[C@H](C)[C@@H](O)[C@H]1C)O[C@H]1C[C@](C)(O)[C@@H](O[C@H]2C[C@@H](OC)[C@H](O)[C@@H](C)O2)[C@H](C)O1` [Compound 1] registered an IC50 in data set [3] of 2300 ± 500 nM.

As for `COC[C@@H](C[C@H]1O[C@@](O)([C@H](O)[C@@H]2C[C@H](OC)[C@@H](O)CC/C=C(C)/C=C/[C@@H](O[C@@H]3O[C@@H](C)[C@H](OC)[C@@H](O)[C@@H]3OC(=O)c3ccccc3)[C@H](C)/C=C(C)/C=C(C)/C=C(\C)C(=O)O2)[C@H](C)[C@@H](O)[C@H]1C)O[C@H]1C[C@](C)(O)[C@@H](O[C@H]2C[C@@H](OC)[C@H](O)[C@@H](C)O2)[C@H](C)O1` [Compound 3], 300 ± 500 nM corresponded to half-maximal inhibition in data set [3] (IC50).

In data set [3], `COC[C@@H](C[C@H]1O[C@@](O)([C@H](O)[C@@H]2C[C@H](OC)[C@@H](O)CC/C=C(C)/C=C/[C@@H](O[C@@H]3O[C@@H](C)[C@H](OC)[C@@H](O)[C@@H]3O)[C@H](C)/C=C(C)/C=C(C)/C=C(\C)C(=O)O2)[C@H](C)[C@@H](OC(C)=O)[C@H]1C)O[C@H]1C[C@](C)(O)[C@@H](O[C@H]2C[C@@H](OC)[C@H](OC(C)=O)[C@@H](C)O2)[C@H](C)O1` [Compound 14] came in with an IC50 of 400 ± 500 nM.

Turning to `COC[C@@H](C[C@H]1O[C@@](O)([C@H](O)[C@@H]2C[C@H](OC)[C@@H](O)CC/C=C(C)/C=C/[C@@H](O[C@@H]3O[C@@H](C)[C@H](OC)[C@@H](O)[C@@H]3O)[C@H](C)/C=C(C)/C=C(C)/C=C(\C)C(=O)O2)[C@H](C)[C@@H](O)[C@H]1C)O[C@H]1C[C@](C)(O)[C@@H](O[C@H]2C[C@@H](OC)[C@H](OC(C)=O)[C@@H](C)O2)[C@H](C)O1` [Compound 15], in [3], the IC50 was found to be 800 ± 500 nM.

In the case of `COC[C@@H](C[C@H]1O[C@@](O)([C@H](O)[C@@H]2C[C@H](OC)[C@@H](OC(C)=O)CC/C=C(C)/C=C/[C@@H](O[C@@H]3O[C@@H](C)[C@H](OC)[C@@H](O)[C@@H]3O)[C@H](C)/C=C(C)/C=C(C)/C=C(\C)C(=O)O2)[C@H](C)[C@@H](O)[C@H]1C)O[C@H]1C[C@](C)(O)[C@@H](O[C@H]2C[C@@H](OC)[C@H](O)[C@@H](C)O2)[C@H](C)O1` [Compound 16], the “hydrolysis (ESIMS)” value in data set [7] was “no hydrolysis was detected”. The IC50 in data set [3] amounted to 800 ± 500 nM.

`COC[C@@H](C[C@H]1O[C@@](O)([C@H](O)[C@@H]2C[C@H](OC)[C@@H](O)CC/C=C(C)/C=C/[C@@H](O[C@@H]3O[C@@H](C)[C@H](OC)[C@@H](OC(C)=O)[C@@H]3O)[C@H](C)/C=C(C)/C=C(C)/C=C(\C)C(=O)O2)[C@H](C)[C@@H](O)[C@H]1C)O[C@H]1C[C@](C)(O)[C@@H](O[C@H]2C[C@@H](OC)[C@H](O)[C@@H](C)O2)[C@H](C)O1` [Compound 17] returned a concentration for half-maximal inhibition (IC50) in data set [3] of 400 ± 500 nM.

As for `COC[C@@H](C[C@H]1O[C@@](O)([C@H](OC(C)=O)[C@@H]2C[C@H](OC)[C@@H](O)CC/C=C(C)/C=C/[C@@H](O[C@@H]3O[C@@H](C)[C@H](OC)[C@@H](O)[C@@H]3O)[C@H](C)/C=C(C)/C=C(C)/C=C(\C)C(=O)O2)[C@H](C)[C@@H](O)[C@H]1C)O[C@H]1C[C@](C)(O)[C@@H](O[C@H]2C[C@@H](OC)[C@H](O)[C@@H](C)O2)[C@H](C)O1` [Compound 18], 1100 ± 500 nM corresponded to half-maximal inhibition in data set [3] (IC50). In addition, the “stability in PBS” value in “Stability in PBS (LC-MS)” is given as “unstable under these conditions, producing several new compounds over a five hour period”.

With `COC[C@@H](C[C@H]1O[C@@](O)([C@H](OC)[C@@H]2C[C@H](OC)[C@@H](O)CC/C=C(C)/C=C/[C@@H](O[C@@H]3O[C@@H](C)[C@H](OC)[C@@H](O)[C@@H]3O)[C@H](C)/C=C(C)/C=C(C)/C=C(\C)C(=O)O2)[C@H](C)[C@@H](O)[C@H]1C)O[C@H]1C[C@](C)(O)[C@@H](O[C@H]2C[C@@H](OC)[C@H](O)[C@@H](C)O2)[C@H](C)O1` [Compound 20], in data set [3], 2800 ± 500 nM corresponded to half-maximal inhibition (IC50). The “stability in PBS” value in the data set “Stability in PBS (LC-MS)” was “partially convert to a second isomeric compound over a period of several hours”.

In the case of `CO[C@@H]1[C@@H](O)[C@H](O)[C@H](O[C@@H]2/C=C/C(C)=C/CC[C@H](O)[C@@H](OC)C[C@@H](CO)OC(=O)/C(C)=C/C(C)=C/C(C)=C/[C@H]2C)O[C@H]1C` [Compound 22], the “isomerization to ring expanded isomer” value in [8] is “slowly isomerized to its ring expanded isomer”. Besides, the concentration for half-maximal inhibition (IC50) in data set [3] (Table 6, apoptolidin oxidative cleavage products, mitochondrial F0F1-ATPase, read-out: IC50) came to 16000 ± 5000 nM. In addition, the “F0F1-ATPase inhibitory activity (in words)” value in data set [3] is recorded as “potency comparable to isoapoptolidin”.

Turning to `COC[C@@H](C[C@H]1O[C@@](O)([C@@H]2OC(=O)/C(C)=C/C(C)=C/C(C)=C/[C@@H](C)[C@H](O[C@@H]3O[C@@H](C)[C@H](OC)[C@@H](O)[C@@H]3O)/C=C/C(C)=C/CC[C@H](O)[C@@H](OC)C[C@@H]2O)[C@H](C)[C@@H](O)[C@H]1C)O[C@H]1C[C@](C)(O)[C@@H](O[C@H]2C[C@@H](OC)[C@H](O)[C@@H](C)O2)[C@H](C)O1` [Isoapoptolidin], in data set [3], half-maximal inhibition (IC50) was put at 17000 ± 5000 nM and the “F0F1-ATPase inhibitory activity (in words)” value is on record as “reduced F0F1-ATPase inhibitory activity over apoptolidin”. In data set [5], the Keq was 0.638, the k1 is 0.0626 h⁻¹ and the “k−1” value worked out at 0.0982 h⁻¹. In addition, the “conversion in dilute aqueous solution” value in data set [6] is “convert to apoptolidin”. Besides, the “stable as a solution” value in data set [6] (−20° C., methanol) was “up to six months”.
